“And” between values parts separate entries of the source, which are not always exact repeats. Equal values may be shown once.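 The compound was tested at five concentrations on cells cultured in 96-well plates, with a 48-hour exposure period. TGI is the concentration that stops growth completely.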
Experiments:
Assay in all cases: growth of human tumour cells (NCI), 48 h
[1] = tested on: A498 renal
[2] = tested on: HCC-2998 colon
[3] = tested on: ACHN renal
[4] = tested on: OVCAR-3 ovarian
[5] = tested on: CAKI-1 renal
[6] = tested on: SF-539 CNS
[7] = tested on: OVCAR-5 ovarian
[8] = tested on: OVCAR-8 ovarian
[9] = tested on: SNB-19 CNS

SMILES: CCOC(OCC)C(CC)[Se]c1ccccc1 (stereo unspecified)
- TGI [1]: > 100 µM
- TGI [2]: > 100 µM
- TGI [3]: > 100 µM
- TGI [4]: > 100 µM
- TGI [5]: > 100 µM
- TGI [6]: > 100 µM
- TGI [7]: > 100 µM
- TGI [8]: > 100 µM
- TGI [9]: > 100 µM

SMILES: O=c1[nH]c(=O)n(COCc2ccccc2)c2ccccc12
- TGI [1]: > 100 µM
- TGI [3]: > 100 µM
- TGI [4]: > 100 µM
- TGI [5]: > 100 µM
- TGI [6]: > 100 µM
- TGI [7]: > 100 µM
- TGI [8]: > 100 µM
- TGI [9]: > 100 µM

SMILES: COc1ccc(C2=C(Cl)c3cc(OC)c(OC)cc3C2)cc1OC
- TGI [1]: > 100 µM
- TGI [2]: > 100 µM
- TGI [3]: > 100 µM
- TGI [6]: > 100 µM
- TGI [8]: > 100 µM
- TGI [9]: > 100 µM

SMILES: COc1cc2[nH]c(=O)c3cc(C)cc4c(Cl)nc(c1OC)c2c43
- TGI [2]: > 100 µM
- TGI [3]: > 100 µM
- TGI [4]: > 100 µM
- TGI [5]: > 100 µM
- TGI [6]: > 100 µM
- TGI [7]: > 100 µM
- TGI [8]: > 100 µM
- TGI [9]: > 100 µM

SMILES: Cc1ccc(C#CS(=O)(=O)C(F)(F)F)cc1
- TGI [1]: > 100 µM
- TGI [2]: > 100 µM
- TGI [4]: > 100 µM
- TGI [6]: > 100 µM
- TGI [7]: > 100 µM
- TGI [8]: > 100 µM
- TGI [9]: > 100 µM

SMILES: Cc1ccc(NC(=O)/C(=N/NC(=O)C[N+](C)(C)C)c2nc3ccccc3[nH]c2=O)cc1
- TGI [1]: > 100 µM
- TGI [2]: > 100 µM
- TGI [3]: > 100 µM
- TGI [4]: > 100 µM
- TGI [5]: > 100 µM
- TGI [6]: > 100 µM
- TGI [7]: > 100 µM
- TGI [8]: > 100 µM
- TGI [9]: > 100 µM

SMILES: Cn1cnc(SC2=C3C(=O)C=C4S[C@H]5C[C@]42c2c(c(O)c4c6c2=[N+]3CCC=6C=N4)N5)c1CC(N)C(=O)O (stereo partly specified)
- TGI [1]: 36.5 µM
- TGI [2]: 29.8 µM
- TGI [3]: 29.5 µM
- TGI [4]: 14.6 µM
- TGI [5]: 79.1 µM
- TGI [6]: 31.8 µM
- TGI [7]: 28.5 µM
- TGI [8]: 27.2 µM
- TGI [9]: 32 µM

SMILES: OCC1OC(c2ccccc2)CC1O (stereo unspecified)
- TGI [1]: > 100 µM
- TGI [3]: > 100 µM
- TGI [4]: > 100 µM
- TGI [5]: > 100 µM
- TGI [6]: > 100 µM
- TGI [7]: > 100 µM
- TGI [8]: > 100 µM
- TGI [9]: > 100 µM

SMILES: O=Cc1c(Br)[nH]c2ccccc12
- TGI [1]: > 100 µM
- TGI [2]: > 100 µM
- TGI [4]: > 100 µM
- TGI [6]: > 100 µM
- TGI [7]: > 100 µM
- TGI [8]: > 100 µM

SMILES: S=C(N/N=C(\C(=N/NC(=S)N1CCCCC1)c1ccccn1)c1ccccn1)N1CCCCC1
- TGI [1]: 90.1 µM
- TGI [2]: > 100 µM
- TGI [3]: 91.6 µM
- TGI [4]: > 100 µM
- TGI [5]: > 100 µM
- TGI [6]: > 100 µM
- TGI [7]: > 100 µM
- TGI [8]: > 100 µM
- TGI [9]: > 100 µM

SMILES: CC1=CC(=O)/C(=C/n2c(=S)[nH]c3cc(C)ccc32)C(=O)O1
- TGI [2]: > 100 µM
- TGI [3]: > 100 µM
- TGI [4]: > 100 µM
- TGI [5]: > 100 µM
- TGI [6]: > 100 µM
- TGI [7]: > 100 µM
- TGI [8]: > 100 µM
- TGI [9]: > 100 µM

SMILES: CC1CCOc2ccc(cc2)C=Nc2ccc(cc2)-c2ccc(cc2)N=Cc2ccc(cc2)OCC1 (stereo unspecified)
- TGI [2]: > 100 µM
- TGI [3]: > 100 µM
- TGI [4]: > 100 µM
- TGI [5]: > 100 µM
- TGI [6]: > 100 µM
- TGI [7]: > 100 µM
- TGI [8]: > 100 µM

SMILES: COc1ccc(CCCN2c3ccccc3Sc3ccccc32)cc1
- TGI [1]: > 100 µM
- TGI [2]: > 100 µM
- TGI [3]: > 100 µM
- TGI [5]: > 100 µM
- TGI [6]: > 100 µM
- TGI [7]: > 100 µM
- TGI [8]: > 100 µM
- TGI [9]: > 100 µM

SMILES: COc1cc(C(O)C(=O)c2cnc3cc([N+](=O)[O-])ccc3n2)ccc1O (stereo unspecified)
- TGI [1]: > 100 µM
- TGI [2]: > 100 µM
- TGI [3]: > 100 µM
- TGI [5]: > 100 µM
- TGI [6]: > 100 µM
- TGI [8]: > 100 µM
- TGI [9]: > 100 µM

SMILES: O=C(NN1C(=O)C(Cl)C1c1ccccc1Cl)c1ccccc1O (stereo unspecified)
- TGI [2]: > 100 µM
- TGI [3]: > 100 µM
- TGI [4]: > 100 µM
- TGI [6]: > 100 µM
- TGI [8]: > 100 µM
- TGI [9]: > 100 µM

SMILES: Cn1nc2ccc3nccc(NCCNCCO)c3c2n1
- TGI [2]: > 100 µM
- TGI [3]: > 100 µM
- TGI [4]: > 100 µM
- TGI [5]: > 100 µM
- TGI [6]: > 100 µM
- TGI [7]: > 100 µM
- TGI [8]: > 100 µM
- TGI [9]: > 100 µM

SMILES: COc1cc2c(c(OC)c1OC)-c1ccc(SC)c(=O)cc1[C@@H](NCc1cccc([N+](=O)[O-])c1)CC2
- TGI [2]: < 0.01 µM
- TGI [3]: > 100 µM
- TGI [4]: < 0.01 µM
- TGI [5]: > 100 µM
- TGI [6]: 0.17 µM
- TGI [7]: > 100 µM
- TGI [8]: 43.8 µM
- TGI [9]: > 100 µM

SMILES: O=NN1C(c2ccccc2)CCCC1c1ccccc1 (stereo unspecified)
- TGI [1]: > 85.5 µM
- TGI [2]: > 100 µM
- TGI [4]: > 100 µM
- TGI [5]: > 100 µM
- TGI [6]: > 100 µM
- TGI [7]: > 100 µM
- TGI [8]: > 100 µM
- TGI [9]: > 100 µM

SMILES: Cc1cn([C@@H]2C[C@H](CO)[C@@H]2O)c(=O)[nH]c1=O
- TGI [1]: > 100 µM
- TGI [2]: > 100 µM
- TGI [3]: > 100 µM
- TGI [4]: > 100 µM
- TGI [5]: > 100 µM
- TGI [6]: > 100 µM
- TGI [7]: > 100 µM
- TGI [8]: > 100 µM

SMILES: COc1cc2c(c(OC)c1OC)-c1ccc(SC)c(=O)cc1[C@@H](NC(=O)c1ccc([N+](=O)[O-])cc1)CC2
- TGI [1]: 3.57 µM
- TGI [2]: 0.0151 µM
- TGI [3]: 25 µM and > 100 µM
- TGI [4]: 0.00595 µM
- TGI [7]: 0.171 µM
- TGI [9]: 23.2 µM

SMILES: O=C(c1ccccc1O)c1cc(-c2ncc3c(=O)c4ccccc4oc3n2)c(-c2ccccc2O)[nH]c1=O
- TGI [1]: 57.1 µM
- TGI [2]: 38.2 µM
- TGI [4]: 62.4 µM
- TGI [5]: > 33.3 µM
- TGI [6]: 20.4 µM
- TGI [7]: 62.8 µM
- TGI [8]: > 90.2 µM
- TGI [9]: > 87.5 µM
